Source: US20210078988A1, “MODULATORS OF INDOLEAMINE 2,3-DIOXYGENASE” (GLAXOSMITHKLINE INTELLECTUAL PROPERTY DEVELOPMENT LIMITED, priority 2017, published 2021)

Molecular target: T1, indoleamine 2, 3-dioxygenase (IDO1) (Homo sapiens, UniProt P14902)
T1 construct: human peripheral blood mononuclear cells (PBMC) (PB003F; host or cells: human PBMC stimulated with IFN-gamma and LPS
Test: PBMC IDO1 assay (kynurenine detection via mass spectrometry)
Assay type: cell-based
Settings: human PBMC stimulated with IFN-γ and LPS, 2 days, kynurenine by mass spectrometry; read-out: IDO1 PBMC pIC50 (converted)
Protocol: Compounds of the present invention were tested via high-throughput cellular assays utilizing detection of kynurenine via mass spectrometry and cytotoxicity as end-points. For the mass spectrometry and cytotoxicity assays, human peripheral blood mononuclear cells (PBMC) (PB003F; AIICells®, Alameda, Calif.) were stimulated with human interferon-γ (IFN-γ) (Sigma-Aldrich Corporation, St. Louis, Mo.) and lipopolysaccharide from Salmonella minnesota (LPS) (Invivogen, San Diego, Calif.) to induce the expression of indoleamine 2, 3-dioxygenase (IDO1). Compounds with IDO1 inhibitory properties decreased the amount of kynurenine produced by the cells via the tryptophan catabolic pathway. Cellular toxicity due to the effect of compound treatment was measured using CellTiter-Glo® reagent (CTG) (Promega Corporation, Madison, Wis.), which is based on luminescent detection of ATP, an indicator of metabolically active cells.
In preparation for the assays, test compounds were serially diluted 3-fold in DMSO from a typical top concentration of 5 mM and plated at 0.5 μL in 384-well, polystyrene, clear bottom, tissue culture treated plates with lids (Greiner Bio-One, Kremsmunster, Austria) to generate 11-point dose response curves. Low control wells (0% kynurenine or 100% cytotoxicity) contained either 0.5 μL of DMSO in the presence of unstimulated (-IFN-γ/-LPS) PBMCs for the mass spectrometry assay or 0.5 μL of DMSO in the absence of cells for the cytotoxicity assay, and high control wells (100% kynurenine or 0% cytotoxicity) contained 0.5 μL of DMSO in the presence of stimulated (+IFN-γ/+LPS) PBMCs for both the mass spectrometry and cytotoxicity assays.
Frozen stocks of PBMCs were washed and recovered in RPMI 1640 medium (Thermo Fisher Scientific, Inc., Waltham, Mass.) supplemented with 10% v/v heat-inactivated fetal bovine serum (FBS) (Thermo Fisher Scientific, Inc., Waltham, Mass.), and 1× penicillin-streptomycin antibiotic solution (Thermo Fisher Scientific, Inc., Waltham, Mass.). The cells were diluted to 1,000,000 cells/mL in the supplemented RPMI 1640 medium. 50 μL of either the cell suspension, for the mass spectrometry assay, or medium alone, for the cytotoxicity assay, were added to the low control wells, on the previously prepared 384-well compound plates, resulting in 50,000 cells/well or 0 cells/well respectively. IFN-γ and LPS were added to the remaining cell suspension at final concentrations of 100 ng/ml and 50 ng/ml respectively, and 50 μL of the stimulated cells were added to all remaining wells on the 384-well compound plates. The plates, with lids, were then placed in a 37° C., 5% CO2 humidified incubator for 2 days.
Following incubation, the 384-well plates were removed from the incubator and allowed to equilibrate to room temperature for 30 minutes. For the cytotoxicity assay, CellTiter-Glo® was prepared according to the manufacturer's instructions, and 40 μL were added to each plate well. After a twenty minute incubation at room temperature, luminescence was read on an EnVision® Multilabel Reader (PerkinElmer Inc., Waltham, Mass.). For the mass spectrometry assay, 10 μL of supernatant from each well of the compound-treated plates were added to 40 μL of acetonitrile, containing 10 μM of an internal standard for normalization, in 384-well, polypropylene, V-bottom plates (Greiner Bio-One, Kremsmunster, Austria) to extract the organic analytes. Following centrifugation at 2000 rpm for 10 minutes, 10 μL from each well of the acetonitrile extraction plates were added to 90 μL of sterile, distilled H2O in 384-well, polypropylene, V-bottom plates for analysis of kynurenine and the internal standard on the RapidFire 300 (Agilent Technologies, Santa Clara, Calif.) and 4000 QTRAP MS (SCIEX, Framingham, Mass.). MS data were integrated using Agilent Technologies' RapidFire Integrator software, and data were normalized for analysis as a ratio of kynurenine to the internal standard. […]

T1 sequence (P14902 whole entry): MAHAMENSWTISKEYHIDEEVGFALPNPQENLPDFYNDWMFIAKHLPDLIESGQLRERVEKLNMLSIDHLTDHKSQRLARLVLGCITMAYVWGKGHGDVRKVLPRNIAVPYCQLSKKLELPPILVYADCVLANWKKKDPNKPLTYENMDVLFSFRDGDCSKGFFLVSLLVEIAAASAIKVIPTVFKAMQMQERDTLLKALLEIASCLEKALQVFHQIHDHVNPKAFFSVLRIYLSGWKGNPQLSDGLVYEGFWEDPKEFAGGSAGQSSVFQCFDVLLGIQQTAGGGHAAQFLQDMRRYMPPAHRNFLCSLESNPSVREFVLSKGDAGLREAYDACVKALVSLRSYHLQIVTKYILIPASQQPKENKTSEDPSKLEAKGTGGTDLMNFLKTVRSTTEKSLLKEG

| SMILES | IC50 |
| --- | --- |
| CCc1ccc(C(=O)NC(CC2CCN(C(=O)OC(C)(C)C)CC2)c2ccccc2)s1 (stereo not shown) [Example 1, tert-butyl 4-(2-(5-ethylthiophene-2-carboxamido)-2-phenylethyl)piperidine-1-carboxylate] | 7.94 nM |
| CC(C)(C)OC(=O)N1CCC(CC(NC(=O)c2ccc(Br)s2)c2ccccc2)CC1 (stereo not shown) [Example 2, tert-butyl 4-(2-(5-bromothiophene-2-carboxamido)-2-phenylethyl)piperidine-1-carboxylate] | 7.94 nM |
| CC(C)(C)OC(=O)N1CCC(CC(NC(=O)c2ccc(Cl)s2)c2ccccc2)CC1 (stereo not shown) [Example 3, tert-butyl 4-(2-(5-chlorothiophene-2-carboxamido)-2-phenylethyl)piperidine-1-carboxylate] | 10 nM |
| C#Cc1ccc(C(=O)NC(CC2CCN(C(=O)OC(C)(C)C)CC2)c2ccccc2)s1 (stereo not shown) [Example 4, tert-butyl 4-(2-(5-ethynylthiophene-2-carboxamido)-2-phenylethyl)piperidine-1-carboxylate] | 3.98 nM |
| C#Cc1ccc(C(=O)NC(CC2CCN(C(=O)OC(C)(C)C)CC2)c2ccccc2)cc1 (stereo not shown) [Example 5, tert-butyl 4-(2-(4-ethynylbenzamido)-2-phenylethyl)piperidine-1-carboxylate] | 7.94 nM |
| C#Cc1ccc(C(=O)NC(CC2CCN(C(=O)OC(C)(C)C)CC2)c2ccccc2)cc1F (stereo not shown) [Example 6, tert-butyl 4-(2-(4-ethynyl-3-fluorobenzamido)-2-phenylethyl)piperidine-1-carboxylate] | 10 nM |
| CCOC(=O)N1CCC(CC(NC(=O)c2ccc(Cl)s2)C2CC2)CC1 (stereo not shown) [Example 7, ethyl 4-(2-(5-chlorothiophene-2-carboxamido)-2-cyclopropylethyl)piperidine-1-carboxylate] | 6.31 nM |
| CC(C)(C)OC(=O)N1CCC(C[C@H](NC(=O)c2ccc(Cl)s2)C2CC2)CC1 [Example 8, (S)-tert-butyl 4-(2-(5-chlorothiophene-2-carboxamido)-2-cyclopropylethyl)piperidine-1-carboxylate] | 6.31 nM |
| Cc1ccc(C(=O)N[C@@H](CC2CCN(C(=O)OC(C)(C)C)CC2)C2CC2)s1 [Example 9, (S)-tert-butyl 4-(2-cyclopropyl-2-(5-methylthiophene-2-carboxamido)ethyl)piperidine-1-carboxylate] | 5.01 nM |
| CCc1ccc(C(=O)N[C@@H](CC2CCN(C(=O)OC(C)(C)C)CC2)C2CC2)s1 [Example 10, (S)-tert-butyl 4-(2-cyclopropyl-2-(5-ethylthiophene-2-carboxamido)ethyl)piperidine-1-carboxylate] | 5.01 nM |
| CCOC(=O)N1CCC(C[C@H](NC(=O)c2ccc(C)s2)C2CC2)CC1 [Example 11, (S)-ethyl 4-(2-cyclopropyl-2-(5-methylthiophene-2-carboxamido)ethyl)piperidine-1-carboxylate] | 5.01 nM |
| CCOC(=O)N1CCC(C[C@H](NC(=O)c2ccc(Cl)s2)C2CC2)CC1 [Example 12, ethyl (S)-4-(2-(5-chlorothiophene-2-carboxamido)-2-cyclopropylethyl)piperidine-1-carboxylate] | 3.16 nM |
| COC(=O)N1CCC(C[C@H](NC(=O)c2ccc(Cl)s2)C2CC2)CC1 [Example 13, (S)-methyl 4-(2-(5-chlorothiophene-2-carboxamido)-2-cyclopropylethyl)piperidine-1-carboxylate] | 7.94 nM |
| CC(C)OC(=O)N1CCC(C[C@H](NC(=O)c2ccc(Cl)s2)C2CC2)CC1 [Example 14, isopropyl (S)-4-(2-(5-chlorothiophene-2-carboxamido)-2-cyclopropylethyl)piperidine-1-carboxylate] | 3.98 nM |
| COc1ccc(C(CC2CCN(C(=O)OC(C)(C)C)CC2)NC(=O)c2ccc(Cl)s2)cn1 (stereo not shown) [Example 15, tert-butyl 4-(2-(5-chlorothiophene-2-carboxamido)-2-(6-methoxypyridin-3-yl)ethyl)piperidine-1-carboxylate] | 3.98 nM |
| COc1ccc([C@H](CC2CCN(C(=O)OC(C)(C)C)CC2)NC(=O)c2ccc(Cl)s2)cn1 [Example 16, tert-butyl (S)-4-(2-(5-chlorothiophene-2-carboxamido)-2-(6-methoxypyridin-3-yl)ethyl)piperidine-1-carboxylate] | 0.794 nM |
| COc1ccc([C@H](CC2CCN(C(=O)OC(C)(C)C)CC2)NC(=O)c2ccc(F)cc2)cn1 [Example 17, tert-butyl (S)-4-(2-(4-fluorobenzamido)-2-(6-methoxypyridin-3-yl)ethyl)piperidine-1-carboxylate] | 7.94 nM |
| CC(C)CC(CC1CCN(C(=O)OC(C)(C)C)CC1)NC(=O)c1ccc(Cl)s1 (stereo not shown) [Example 18, tert-butyl 4-(2-(5-chlorothiophene-2-carboxamido)-4-methylpentyl)piperidine-1-carboxylate] | 6.31 nM |
| COc1ccc([C@H](CC2CCN(C(=O)OC(C)(C)C)CC2)NC(=O)c2ccc(Cl)cc2)cn1 [Example 19, tert-butyl (S)-4-(2-(4-chlorobenzamido)-2-(6-methoxypyridin-3-yl)ethyl)piperidine-1-carboxylate] | 3.98 nM |
| COc1ccc([C@H](CC2CCN(C(=O)OC(C)(C)C)CC2)NC(=O)c2ccc(C)s2)cn1 [Example 20, tert-butyl(S)-4-(2-(6-methoxypyridin-3-yl)-2-(5-methylthiophene-2-carboxamido)ethyl)piperidine-1-carboxylate] | 2 nM |
| COc1ccc([C@H](CC2CCN(C(=O)OC(C)C)CC2)NC(=O)c2ccc(Cl)s2)cn1 [Example 21, isopropyl (S)-4-(2-(5-chlorothiophene-2-carboxamido)-2-(6-methoxypyridin-3-yl)ethyl)piperidine-1-carboxylate] | 1.58 nM |
| COc1ccc([C@H](CC2CCN(C(=O)OC(C)C)CC2)NC(=O)c2ccc(Cl)cc2)cn1 [Example 22, isopropyl (S)-4-(2-(4-chlorobenzamido)-2-(6-methoxypyridin-3-yl)ethyl)piperidine-1-carboxylate] | 2 nM |
| COc1ccc([C@H](CC2CCN(C(=O)OC(C)(C)C)CC2)NC(=O)c2ccc(Br)cc2)cn1 [Example 23, tert-butyl (S)-4-(2-(4-bromobenzamido)-2-(6-methoxypyridin-3-yl)ethyl)piperidine-1-carboxylate] | 3.98 nM |
| CCc1ccc(C(=O)N[C@@H](CC2CCN(C(=O)OC(C)(C)C)CC2)c2ccc(OC)nc2)s1 [Example 24, tert-butyl (S)-4-(2-(5-ethylthiophene-2-carboxamido)-2-(6-methoxypyridin-3-yl)ethyl)piperidine-1-carboxylate] | 3.16 nM |
| COc1ccc([C@H](CC2CCN(C(=O)OC(C)(C)C)CC2)NC(=O)c2ccc(F)s2)cn1 [Example 25, tert-butyl (S)-4-(2-(5-fluorothiophene-2-carboxamido)-2-(6-methoxypyridin-3-yl)ethyl)piperidine-1-carboxylate] | 3.16 nM |
| Cc1ccc(C(=O)NC(CC(C)C)CC2CCN(C(=O)OC(C)(C)C)CC2)s1 (stereo not shown) [Example 26, tert-butyl 4-(4-methyl-2-(5-methylthiophene-2-carboxamido)pentyl)piperidine-1-carboxylate] | 7.94 nM |
| CC(C)CC(CC1CCN(C(=O)OC(C)(C)C)CC1)NC(=O)c1ccc(Br)cc1 (stereo not shown) [Example 27, tert-butyl 4-(2-(4-bromobenzamido)-4-methylpentyl)piperidine-1-carboxylate] | 10 nM |
| CC(C)CC(CC1CCN(C(=O)OC(C)(C)C)CC1)NC(=O)c1ccc(Br)s1 (stereo not shown) [Example 28, tert-butyl 4-(2-(5-bromothiophene-2-carboxamido)-4-methylpentyl)piperidine-1-carboxylate] | 7.94 nM |
